Measured values reported in US20230218577A1, “USE OF HEAT SHOCK PROTEIN INHIBITORS FOR THE TREATMENT OF NEURODEVELOPMENTAL DISORDERS” (The Children's Medical Center Corporation, priority 2020, published 2023).

Test system: pS6, IGF-IRβ, Akt, PRAS40, Raptor in Tsc2-sh neurons
Assay: Western blot of PI3K/Akt/mTORC1 signaling components in Tsc2-sh neurons
Type: cell-based, rat
Description: Hsp90 is a molecular chaperone that protects its client proteins from degradation, and many of its substrates are oncogenic proteins (Neckers and Workman, Hsp90 molecular chaperone inhibitors: are we there yet?; Clin Cancer Res 18, 64-76 (2012)). Among these, insulin-growth factor-1 Receptor β (IGF-IRβ), Akt, and Raptor are components of the PI3K/mTOR pathway that have been identified as Hsp90 substrates in non-neuronal cells (Basso et al., Akt forms an intracellular complex with heat shock protein 90 (Hsp90) and Cdc37 and is destabilized by inhibitors of Hsp90 function; J Biol Chem 277, 39858-39866 (2002); Ohji et al., Suppression of the mTOR-raptor signaling pathway by the inhibitor of heat shock protein 90 geldanamycin; J Biochem 139, 129-135 (2006)). To test whether Hsp90 affects mTORC1 activity through regulation of IGF-IRβ, Akt, or Raptor in neurons, the expression of these potential client proteins were examined in Tsc2-knockdown neurons treated with vehicle or with a 7-point dose-response curve at a three-fold dilution of 17-AGG (assay endpoint DIV20).
To investigate whether Hsp90 could function as a chaperone of IGF-IRβ in neurons, wild-type neurons were treated with 17-AGG and then proteasomal degradation was inhibited using bortezomib (BTZ). As expected, Hsp90 inhibition led to reduced IGF-IRβ levels, and this reduction was prevented with BTZ. […] Without wishing to be bound by theory, it is likely that Hsp90 protects IGF-IRβ against proteasomal degradation. To test whether IGF-IRβ protein stability and signaling may represent a potential mechanism by which Hsp90 inhibition reduces mTORC1 activity, IGF-IRβ activation was assessed by autophosphorylation at Tyr1135/1136. Consistent with mTOR-dependent negative feedback on the RTK/Akt pathway (Zhang et al., S6K1 regulates GSK3 under conditions of mTOR-dependent feedback inhibition of Akt; Molecular cell 24, 185-197 (2006)), IGF-IRβ phosphorylation was reduced in the vehicle-treated Tsc2-sh neurons compared to controls (FIGS. 3G, J). […] (FIGS. 3G, J).
Hippocampi and cortexes from 18-day-old rat embryos (Charles River CD1) were isolated under the microscope and collected in Hank's Balanced Salt Solution containing 10 mM MgCl2, 1 mM kynurenic acid, 10 mM HEPES and penicillin/streptomycin. After 5 min dissociation at 37° C. in 30 U/ml of papain, neurons were mechanically triturated and plated in Neurobasal (NB) medium containing B27 supplement, 2 mM L-glutamine, penicillin/streptomycin and primocin (NB/B27). Biochemical analysis was performed on cortical cultures plated at 1×10^6 cells/well onto six-well plates. Immunofluorescent analysis was performed on hippocampal cultures plated at 20×10^3 cells/well onto 96-well plates. All plates were coated with 20 μg/ml poly-D-lysine (PDL).
Protein extracts were lysed in 1×SDS (22 mM Tris-HCl pH 6.8, 4% Glycerol, 0.8% SDS, 1.6% β-mercaptoethanol, bromphenol blue) sample buffer, heated to 95° C. for 5 min and stored frozen. Before being subjected to discontinuous gel electrophoresis, equal amounts of all protein lysates were verified by Coomassie gel staining. For immunoblotting, equal amounts of protein lysates were subjected to SDS-PAGE, transferred to Immobilon-P Millipore and incubated in LI-COR blocking solution at RT for 2 hrs. Primary and secondary antibodies were diluted in LI-COR blocking solution to the appropriate concentrations. LI-COR IRDye secondary antibodies were used. All images were acquired using the LI-COR Odyssey Classic imager and associated Image Studio Lite analysis software (version 5.2.5). Quantification of protein expression was performed by densitometry scans of immunoblots using LI-COR Odyssey imaging system.
Western blot quantifications were performed by protein normalization using GAPDH as loading control. Level of phosphorylated proteins was expressed as the ratio of phosphorylated/total level after GAPDH normalization. […]

[1] = Tsc2-sh neurons, 7-point dose-response, assay endpoint DIV20
[2] = Tsc2-sh neurons, 17-AGG dose of 4 μM, assay endpoint DIV20
[3] = Tsc2-sh neurons, dose curve 24 hrs between DIV19-20

**Q.** What does the source list for `C=CCNC1=C2C[C@@H](C)C[C@H](OC)[C@H](O)[C@@H](C)/C=C(\C)[C@H](OC(N)=O)[C@@H](OC)C=C/C=C(\C)C(=O)NC(=CC1=O)C2=O` [17-AGG, 3 S,5S,6R,7S,8E,10R,11S,12E,14E)-21-(allylamino)-6-hydroxy-5,11-dimethoxy-3,7,9,15-tetramethyl-16,20,22-trioxo-17-azabicyclo[16.3.1]docosa-8,12,14,18,21-pentaen-10-yl] carbamate]?
**A.** Akt levels [1]: no effect; Raptor levels [1]: no effect; pS6 phosphorylation [2]: significantly reduced; total IGF-IRβ protein level [2]: significantly reduced; phosphorylation of Akt [3]: reduced; phosphorylation of PRAS40 [3]: reduced; phosphorylation of IGF-IRβ receptor (Tyr1135/1136) (Tsc2-sh neurons, dose curve, DIV19-20): further reduced; mTORC1 activation (Tsc2 knockdown cultures at DIV13, four days of 17-AGG 5-450 nM): without any effect
